Data published in US8247211B2, “Glycopeptide antibiotics” (American Cyanamid Company, priority 2001, dated 2012).
Values after ≈ are worked out from the molar mass of the structure shown.

Tests used:
Experiment in all cases: In vitro antibacterial evaluation: minimum inhibitory concentration (MIC), broth dilution method
Assay type in all cases: cell-based
Settings in all cases: 18 hours at 35° C.
[1] = system: Enterococcus sp.
In short: (§1)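 Following NCCLS approved standard M7-A2, compounds are serially diluted from 64 to 0.06 μg/mL in Muller-Hinton II […] and inoculated at 5×10^5 CFU/mL; the MIC is the minimum concentration at which growth is inhibited.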

[2] = system: Escherichia coli
In short: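 MIC read as lowest drug level preventing visible growth. Organisms at 5×10^5 CFU/mL were exposed to a 64-0.06 μg/mL dilution series in Muller-Hinton II […] following NCCLS broth dilution standard M7-A2.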

[3] = system: Staphylococcus sp.
In short: as §1

[4] = system: Streptococcus sp.
In short: as §1

[5] = broth dilution, inoculum 5×10^5 CFU/mL

MIC Enterococcus avium (GC 4558) ([1]; Enterococcus avium (GC 4558)): 16 µg/mL (≈ 11 µM)
MIC Enterococcus faecalis (ATCC 29212) ([1]; Enterococcus faecalis (ATCC 29212)): 32 µg/mL (≈ 22 µM)
MIC Enterococcus faecalis (GC 2242) ([1]; Enterococcus faecalis (GC 2242)): 32 µg/mL (≈ 22 µM)
MIC Enterococcus faecalis (GC 2691) ([1]; Enterococcus faecalis (GC 2691)): 32 µg/mL (≈ 22 µM)
MIC Enterococcus faecalis (GC 3059) ([1]; Enterococcus faecalis (GC 3059)): 32 µg/mL (≈ 22 µM)
MIC Enterococcus faecalis (GC 4552) ([1]; Enterococcus faecalis (GC 4552)): 32 µg/mL (≈ 22 µM)
MIC Enterococcus faecalis (GC 4553) ([1]; Enterococcus faecalis (GC 4553)): 32 µg/mL (≈ 22 µM)
MIC Enterococcus faecalis (GC 4554) ([1]; Enterococcus faecalis (GC 4554)): 32 µg/mL (≈ 22 µM)
MIC Enterococcus faecalis (GC 6189) ([1]; Enterococcus faecalis (GC 6189)): 32 µg/mL (≈ 22 µM)
MIC Enterococcus faecium (GC 2243) ([1]; Enterococcus faecium (GC 2243)): 32 µg/mL (≈ 22 µM)
MIC Enterococcus faecium (GC 4556) ([1]; Enterococcus faecium (GC 4556)): 32 µg/mL (≈ 22 µM)
MIC Enterococcus faecium (GC 4557) ([1]; Enterococcus faecium (GC 4557)): 16 µg/mL (≈ 11 µM)
MIC Enterococcus faecalis (GC 2242) [1, 5]: 32 µg/mL (≈ 22 µM)
MIC Enterococcus faecalis (GC 2691) [1, 5]: 32 µg/mL (≈ 22 µM)
MIC Enterococcus faecalis (GC 3059) [1, 5]: 32 µg/mL (≈ 22 µM)
MIC Escherichia coli (ATCC 25922) ([2]; Escherichia coli (ATCC 25922)): >64 µg/mL
MIC Escherichia coli (GC 4559) ([2]; Escherichia coli (GC 4559)): >64 µg/mL
MIC Escherichia coli (GC 4560) ([2]; Escherichia coli (GC 4560)): 32 µg/mL (≈ 22 µM)
MIC Coagulase Negative Staphylococcus (GC 4547) ([3]; Coagulase Negative Staphylococcus (GC 4547)): 32 µg/mL (≈ 22 µM)
MIC Coagulase Negative Staphylococcus (GC 4548) ([3]; Coagulase Negative Staphylococcus (GC 4548)): 32 µg/mL (≈ 22 µM)
MIC Coagulase Negative Staphylococcus (GC 4549) ([3]; Coagulase Negative Staphylococcus (GC 4549)): 16 µg/mL (≈ 11 µM)
MIC Coagulase Negative Staphylococcus (GC 4551) ([3]; Coagulase Negative Staphylococcus (GC 4551)): 32 µg/mL (≈ 22 µM)
MIC Coagulase Negative Staphylococcus (GC 6257) ([3]; Coagulase Negative Staphylococcus (GC 6257)): 16 µg/mL (≈ 11 µM)
MIC Staphylococcus aureus (ATCC 29213) ([3]; Staphylococcus aureus (ATCC 29213)): 32 µg/mL (≈ 22 µM)
MIC Staphylococcus aureus (GC 1131) ([3]; Staphylococcus aureus (GC 1131)): 32 µg/mL (≈ 22 µM)
MIC Staphylococcus aureus (GC 3051) ([3]; Staphylococcus aureus (GC 3051)): 32 µg/mL (≈ 22 µM)
MIC Staphylococcus aureus (GC 3053) ([3]; Staphylococcus aureus (GC 3053)): 32 µg/mL (≈ 22 µM)
MIC Staphylococcus aureus (GC 4541) ([3]; Staphylococcus aureus (GC 4541)): 32 µg/mL (≈ 22 µM)
MIC Staphylococcus aureus (GC 4542) ([3]; Staphylococcus aureus (GC 4542)): 32 µg/mL (≈ 22 µM)
MIC Staphylococcus aureus (GC 4544) ([3]; Staphylococcus aureus (GC 4544)): 32 µg/mL (≈ 22 µM)
MIC Staphylococcus aureus (GC 4545) ([3]; Staphylococcus aureus (GC 4545)): 32 µg/mL (≈ 22 µM)
MIC Staphylococcus aureus-SMITH (GC 4543) ([3]; Staphylococcus aureus-SMITH (GC 4543)): 32 µg/mL (≈ 22 µM)
MIC Streptococcus agalactiae (GC 4564) ([4]; Streptococcus agalactiae (GC 4564)): 16 µg/mL (≈ 11 µM)
MIC Streptococcus pneumoniae (ATCC 6301) ([4]; Streptococcus pneumoniae (ATCC 6301)): 16 µg/mL (≈ 11 µM)
MIC Streptococcus pneumoniae (GC 1894) ([4]; Streptococcus pneumoniae (GC 1894)): 1 µg/mL (≈ 0.688 µM)
MIC Streptococcus pneumoniae (GC 4565) ([4]; Streptococcus pneumoniae (GC 4565)): 2 µg/mL (≈ 1.38 µM)
MIC Streptococcus pyogenes (GC 4563) ([4]; Streptococcus pyogenes (GC 4563)): 8 µg/mL (≈ 5.5 µM)
MIC Streptococcus agalactiae (GC 4564) [4, 5]: 16 µg/mL (≈ 11 µM)
MIC Streptococcus pneumoniae (ATCC 6301) [4, 5]: 16 µg/mL (≈ 11 µM)
MIC Streptococcus pneumoniae (GC 1894) [4, 5]: 1 µg/mL (≈ 0.688 µM)
MIC Streptococcus pneumoniae (GC 4565) [4, 5]: 2 µg/mL (≈ 1.38 µM)
MIC Streptococcus pyogenes (GC 4563) [4, 5]: 8 µg/mL (≈ 5.5 µM)
Compound: CC(c1ccccc1)C1NC(=O)CNC(=O)C(CO)NC(=O)C(C(O)C2CNC(=N)N2C2OC(CO)C(O)C(O)C2O)NC(=O)C(C(O)C2CNC(=N)N2)NC(=O)C(Cc2ccc(OC3OC(CO)C(OC4OC(CO)C(OCC=Cc5ccc(N(C)C)cc5)C(O)C4O)C(O)C3O)cc2)NC1=O (stereo not shown) [Example 243a]
MIC Staphylococcus haemolyticus (GC 4546) ([3]; Staphylococcus haemolyticus (GC 4546)): 32 µg/mL (≈ 22 µM)
